Test results from ChEMBL document CHEMBL4354844, “Discovery of Balovaptan, a Vasopressin 1a Receptor Antagonist for the Treatment of Autism Spectrum Disorder” (J Med Chem, 2020).

Assays:
[1] = target: Vasopressin V1a receptor (Homo sapiens) (UniProt P37288); assay: Antagonist activity at human Gq5s-coupled V1a receptor expressed in CHO cells assessed as inhibition of vasopressin-induced calcium flux preincubated for 20 mins followed by vasopressin addition and measured for 5 mins by fluo-4-AM dye based FLIPR assay; assay type: functional, cell-based
Vasopressin V1a receptor (Homo sapiens), sequence (P37288 whole entry, looked up): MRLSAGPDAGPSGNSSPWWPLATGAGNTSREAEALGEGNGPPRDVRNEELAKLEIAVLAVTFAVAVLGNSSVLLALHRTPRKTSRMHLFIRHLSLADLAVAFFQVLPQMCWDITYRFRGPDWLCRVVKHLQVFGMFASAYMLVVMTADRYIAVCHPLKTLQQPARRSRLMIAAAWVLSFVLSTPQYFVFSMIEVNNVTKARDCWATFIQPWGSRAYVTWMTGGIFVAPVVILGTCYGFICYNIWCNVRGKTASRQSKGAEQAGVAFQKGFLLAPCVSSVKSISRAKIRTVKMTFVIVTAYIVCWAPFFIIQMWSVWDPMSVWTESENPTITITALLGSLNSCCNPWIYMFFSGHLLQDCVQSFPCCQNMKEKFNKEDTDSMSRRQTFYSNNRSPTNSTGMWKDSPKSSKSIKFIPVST

[2] = Intrinsic clearance in human liver microsomes assessed per mg protein; assay type: ADME, Microsome; conditions: read-out: CLH
[3] = Intrinsic clearance in rat liver microsomes assessed per mg protein; assay type: ADME, Microsome; conditions: read-out: CLH
[4] = Selectivity ratio of Kb for antagonist activity at human V2 receptor to Kb for antagonist activity at human Gq5s-coupled V1a receptor expressed in CHO cells
[5] = Selectivity ratio of Kb for antagonist activity at human […] receptor to Kb for antagonist activity at human Gq5s-coupled V1a receptor expressed in CHO cells
[6] = Water/octanol distribution coefficient, log D of the compound at pH 7.4 measured after 18 hrs by LC-MS analysis; assay type: physicochemical
[7] = target: MDR1 (ABCB1, P-glycoprotein) (Homo sapiens, UniProt P08183); assay: Substrate activity at human MDR1 expressed in LLC-PK1 cells assessed as efflux ratio of permeability at 1 uM measured after 3.5 hrs by lucifer yellow based scintillation counting or HPLC method; assay type: ADME, cell-based
MDR1 (ABCB1, P-glycoprotein), sequence (P08183 whole entry): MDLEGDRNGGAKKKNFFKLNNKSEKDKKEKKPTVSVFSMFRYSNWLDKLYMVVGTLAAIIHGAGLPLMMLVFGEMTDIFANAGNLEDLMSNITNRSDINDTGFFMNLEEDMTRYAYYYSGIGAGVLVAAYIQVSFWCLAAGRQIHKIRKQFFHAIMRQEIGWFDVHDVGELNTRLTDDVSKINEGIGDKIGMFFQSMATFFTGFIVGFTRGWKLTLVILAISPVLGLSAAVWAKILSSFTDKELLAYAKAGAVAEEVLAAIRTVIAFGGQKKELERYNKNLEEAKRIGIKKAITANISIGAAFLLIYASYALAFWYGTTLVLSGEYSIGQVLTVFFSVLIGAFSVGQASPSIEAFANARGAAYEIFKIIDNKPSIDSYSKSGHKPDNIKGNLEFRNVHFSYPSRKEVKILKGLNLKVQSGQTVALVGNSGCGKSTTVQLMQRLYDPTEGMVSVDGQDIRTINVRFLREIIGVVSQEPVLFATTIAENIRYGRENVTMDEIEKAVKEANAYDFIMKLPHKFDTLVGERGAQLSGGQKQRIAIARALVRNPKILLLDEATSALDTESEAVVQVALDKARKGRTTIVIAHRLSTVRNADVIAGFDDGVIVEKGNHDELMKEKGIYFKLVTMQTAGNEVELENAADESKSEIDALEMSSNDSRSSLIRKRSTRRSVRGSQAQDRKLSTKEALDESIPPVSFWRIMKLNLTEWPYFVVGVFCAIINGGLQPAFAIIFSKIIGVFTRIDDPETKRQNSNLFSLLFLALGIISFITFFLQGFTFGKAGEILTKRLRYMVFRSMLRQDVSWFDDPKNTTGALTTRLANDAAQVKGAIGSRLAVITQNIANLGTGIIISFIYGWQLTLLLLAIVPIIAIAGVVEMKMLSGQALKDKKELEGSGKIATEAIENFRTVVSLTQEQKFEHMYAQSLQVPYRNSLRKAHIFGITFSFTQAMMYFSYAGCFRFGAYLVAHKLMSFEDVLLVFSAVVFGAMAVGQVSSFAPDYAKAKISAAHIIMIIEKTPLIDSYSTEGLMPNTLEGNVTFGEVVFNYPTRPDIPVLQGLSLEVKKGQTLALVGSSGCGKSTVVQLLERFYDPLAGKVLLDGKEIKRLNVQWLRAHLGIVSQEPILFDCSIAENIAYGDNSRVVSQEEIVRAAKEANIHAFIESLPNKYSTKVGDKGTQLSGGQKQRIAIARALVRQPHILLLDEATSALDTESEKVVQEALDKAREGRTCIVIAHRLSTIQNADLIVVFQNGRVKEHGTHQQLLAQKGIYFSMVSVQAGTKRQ

[8] = Half life in iv dosed human; assay type: ADME, organism-based; conditions: in vivo

| SMILES | pKb [1] | microsomal CLint [2] [µL/min/mg] | microsomal CLint [3] [µL/min/mg] | Selectivity ratio [4] | Selectivity ratio [5] | logD at 18 h [6] | efflux ratio at 3.5 h, 1 µM [7] | half-life [8] [h] |
| --- | --- | --- | --- | --- | --- | --- | --- | --- |
| CN1Cc2cc(Cl)ccc2-n2c(nnc2N2CCC3(CC2)OCc2ccccc23)C1 | 9.6 | < 10 | 718 | 218 | 127 | – | – | – |
| OCCN1Cc2cc(Cl)ccc2-n2c(nnc2[C@H]2CC[C@H](Oc3ccccc3)CC2)C1 | 9.6 | – | – | 1091 | 677 | 2.7 | – | – |
| CN1Cc2cc(Cl)ccc2-n2c(nnc2[C@H]2CC[C@H](c3ccc(F)cn3)CC2)C1 | – | – | – | – | – | 2.5 to 3.2 | – | – |
| CN1Cc2cc(Cl)ccc2-n2c(nnc2[C@H]2CC[C@H](c3ncccc3F)CC2)C1 | – | – | – | – | – | 2.5 to 3.2 | – | – |
| CN1Cc2cc(Cl)ccc2-n2c(nnc2[C@H]2CC[C@H](Oc3ccccc3)CC2)C1 | 9.5 | – | – | 629 | 289 | 3.2 | – | – |
| CN1Cc2cc(Cl)ccc2-n2c(nnc2[C@H]2CC[C@H](C3=NOCC3)CC2)C1 | – | – | – | – | – | 1 | 6.1 | – |
| CN(C)CCn1cc(C(=O)N2CCC3(CC2)OCc2ccccc23)c2ccc(Cl)cc21 [RO-5028442] | – | – | – | – | – | – | – | 8 |
| CN1Cc2cc(Cl)ccc2-n2c(nnc2[C@H]2CC[C@H](c3noc4ccccc43)CC2)C1 | – | – | – | – | – | > 3 | 1.4 | – |
| CN1Cc2cc(Cl)ccc2-n2c(nnc2[C@H]2CC[C@H](c3ncc(F)cc3F)CC2)C1 | – | – | – | – | – | 2.5 to 3.2 | – | – |
| CN1Cc2cc(Cl)ccc2-n2c(nnc2C2CC=C(c3ccccc3)CC2)C1 (racemic) | 9.3 | – | – | 90 | 22 | – | – | – |
| CN1Cc2cc(Cl)ccc2-n2c(nnc2[C@H]2CC[C@H](n3nnc4ccccc43)CC2)C1 | – | – | – | – | – | 2.4 | 10.9 | – |
| CN1Cc2cc(Cl)ccc2-n2c(nnc2N2CCC3(CC2)OCCc2ccccc23)C1 | 8.8 | < 10 | 550 | 44 | 10 | – | – | – |
| CN(C)S(=O)(=O)N1Cc2cc(Cl)ccc2-n2c(nnc2[C@H]2CC[C@H](Oc3ccccc3)CC2)C1 | 9.5 | – | – | 445 | 190 | 4.1 | – | – |
| CN1Cc2cc(Cl)ccc2-n2c(nnc2C2CCN(c3ccccn3)CC2)C1 | 8.9 | < 10 | 72 | 2478 | 2415 | – | – | – |
| CN1Cc2cc(Cl)ccc2-n2c(nnc2[C@H]2CC[C@]3(CC2)OCc2ccccc23)C1 | 9.1 | 10 | 206 | 19 | 5 | – | – | – |
| Clc1ccc2c(c1)CNCc1nnc([C@H]3CC[C@H](Oc4ccccc4)CC3)n1-2 | 8.7 | – | – | 523 | 430 | 2.7 | 4.3 | – |
| CN1Cc2cc(Cl)ccc2-n2c(nnc2[C@H]2CC[C@@]3(CC2)OCc2ccccc23)C1 | 9.2 | 72 | 1000 | 669 | 236 | – | – | – |
| Cc1onc([C@H]2CC[C@H](c3nnc4n3-c3ccc(Cl)cc3CN(C)C4)CC2)c1C | – | – | – | – | – | – | 3.8 | – |

| SMILES | pKb [1] | microsomal CLint [2] [µL/min/mg] | microsomal CLint [3] [µL/min/mg] | Selectivity ratio [4] | Selectivity ratio [5] | logD at 18 h [6] | efflux ratio at 3.5 h, 1 µM [7] | half-life [8] [h] |
| --- | --- | --- | --- | --- | --- | --- | --- | --- |
| CN1Cc2cc(Cl)ccc2-n2c(nnc2[C@H]2CC[C@H](c3ncccc3Cl)CC2)C1 | – | – | – | – | – | 2.5 to 3.2 | – | – |
| CN1Cc2cc(Cl)ccc2-n2c(nnc2[C@H]2CC[C@H](Nc3ccccn3)CC2)C1 | – | – | – | – | – | – | 14 | – |
| CC(=O)N1Cc2cc(Cl)ccc2-n2c(nnc2[C@H]2CC[C@H](Oc3ccccc3)CC2)C1 | 9.5 | – | – | 1055 | 538 | 2.9 | – | – |
| CN1Cc2cc(Cl)ccc2-n2c(nnc2[C@H]2CC[C@H](c3ccccc3)CC2)C1 | 9.5 | – | – | 17 | 4 | – | – | – |
| Cc1cc(C)nc([C@H]2CC[C@H](c3nnc4n3-c3ccc(Cl)cc3CN(C)C4)CC2)n1 | – | – | – | – | – | 2 | – | – |
| CN(C)CC(=O)N1Cc2cc(Cl)ccc2-n2c(nnc2[C@H]2CC[C@H](Oc3ccccc3)CC2)C1 | 9.2 | – | – | 963 | 1025 | 2.5 | – | – |
| CN1Cc2cc(Cl)ccc2-n2c(nnc2[C@H]2CC[C@H](c3ccccn3)CC2)C1 | 9.6 | – | – | 1081 | 863 | – | 4.4 | – |
| Cc1cccc([C@H]2CC[C@H](c3nnc4n3-c3ccc(Cl)cc3CN(C)C4)CC2)n1 | – | – | – | – | – | 2.5 to 3.2 | – | – |
| CN1Cc2cc(Cl)ccc2-n2c(nnc2N2CCC3(CC2)COCc2ccccc23)C1 | 9.3 | 22 | 949 | 167 | 14 | – | – | – |
| CN1Cc2cc(Cl)ccc2-n2c(nnc2N2CCC(O)(c3ccccc3)CC2)C1 | 8.6 | < 10 | 435 | 38 | 35 | – | – | – |
| CS(=O)(=O)N1Cc2cc(Cl)ccc2-n2c(nnc2[C@H]2CC[C@H](Oc3ccccc3)CC2)C1 | 9.5 | – | – | 573 | 191 | 3.1 | – | – |
| CC(C)N1Cc2cc(Cl)ccc2-n2c(nnc2[C@H]2CC[C@H](Oc3ccccc3)CC2)C1 | 9.4 | – | – | 535 | 224 | – | – | – |
| CC(C)(C)OC(=O)N1Cc2cc(Cl)ccc2-n2c(nnc2[C@H]2CC[C@H](Oc3ccccc3)CC2)C1 | 8.5 | – | – | 19 | 17 | – | – | – |
| Cc1nnc(-c2ccc(-c3ccccc3)cc2)n1-c1ccccc1OCCCCCCN1CCN(C)CC1 | 8.7 | – | – | 67 | 34 | – | – | – |
| CN1Cc2cc(Cl)ccc2-n2c(nnc2[C@H]2CC[C@H](c3cccc(Cl)n3)CC2)C1 | – | – | – | – | – | 2.5 to 3.2 | – | – |
| Clc1ccc2c(c1)CN(C1CCC1)Cc1nnc([C@H]3CC[C@H](Oc4ccccc4)CC3)n1-2 | 9.3 | – | – | 179 | 113 | > 3 | – | – |
| CN1Cc2cc(Cl)ccc2-n2c(nnc2N2CCC3(CC2)SCc2ccccc23)C1 | 9 | 24 | 493 | 65 | 9 | – | – | – |
